Test results from PMC6542772, “Plant Cytosolic Ascorbate Peroxidase with Dual Catalytic Activity Modulates Abiotic Stress Tolerances” (iScience, 2019).

Tests used:
Format in all cases: biochemical
[1] = target: T1, AtCytAPX1 (Arabidopsis thaliana, UniProt Q05431); assay: APX activity assay, in-gel and in solution; conditions: H2O2 co-substrate
T1 construct: gene APX1; ~27 kDa; MBP fusion from E. coli, MBP removed by factor Xa
T1 sequence (Q05431 1-250): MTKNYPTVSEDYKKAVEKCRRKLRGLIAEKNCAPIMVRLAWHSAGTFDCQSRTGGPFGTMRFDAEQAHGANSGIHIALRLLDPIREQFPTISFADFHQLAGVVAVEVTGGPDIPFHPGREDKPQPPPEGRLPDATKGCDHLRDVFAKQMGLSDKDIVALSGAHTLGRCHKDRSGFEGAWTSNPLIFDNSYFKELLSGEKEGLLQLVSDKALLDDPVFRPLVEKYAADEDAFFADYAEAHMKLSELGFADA

[2] = target: T2, CytAPX1 from O. sativa (Os) (Oryza sativa, UniProt Q10N21); assay: APX activity assay, in-gel and in solution; conditions: H2O2 co-substrate
T2 construct: gene APX1; recombinant from E. coli, purified
T2 sequence (Q10N21 2-250): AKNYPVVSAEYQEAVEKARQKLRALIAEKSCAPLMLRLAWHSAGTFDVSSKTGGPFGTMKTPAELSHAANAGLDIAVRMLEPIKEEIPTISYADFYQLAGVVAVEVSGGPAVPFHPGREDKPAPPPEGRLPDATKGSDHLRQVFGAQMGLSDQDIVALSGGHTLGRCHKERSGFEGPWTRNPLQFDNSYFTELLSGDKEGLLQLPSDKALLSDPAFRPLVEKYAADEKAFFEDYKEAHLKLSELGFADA

[3] = target: T3, CytAPX1 from G. max (Gm) (Glycine max, UniProt Q43758); assay: APX activity assay, in-gel and in solution; conditions: H2O2 co-substrate
T3 construct: gene apx1; recombinant from E. coli, purified
T3 sequence (Q43758 1-250): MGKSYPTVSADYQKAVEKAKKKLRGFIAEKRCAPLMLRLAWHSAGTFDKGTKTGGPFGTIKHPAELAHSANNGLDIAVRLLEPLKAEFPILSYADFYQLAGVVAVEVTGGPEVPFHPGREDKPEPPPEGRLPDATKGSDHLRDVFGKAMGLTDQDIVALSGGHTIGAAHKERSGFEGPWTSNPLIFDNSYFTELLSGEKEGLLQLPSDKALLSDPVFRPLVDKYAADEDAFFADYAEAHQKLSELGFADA

[4] = target: T4, OgCytAPX1 (Oncidium cytosolic ascorbate peroxidase 1) (Oncidium hybrid cultivar, UniProt B8XF08); assay: enzyme kinetics, Lineweaver-Burk; conditions: H2O2 co-substrate; APX activity
T4 construct: full length, 250 residues, ~27 kDa; cloned from pseudobulb mRNA; MBP fusion (pMAL-c5x) from E. coli BL21, MBP removed by factor Xa
T4 sequence (B8XF08 entry or part of it): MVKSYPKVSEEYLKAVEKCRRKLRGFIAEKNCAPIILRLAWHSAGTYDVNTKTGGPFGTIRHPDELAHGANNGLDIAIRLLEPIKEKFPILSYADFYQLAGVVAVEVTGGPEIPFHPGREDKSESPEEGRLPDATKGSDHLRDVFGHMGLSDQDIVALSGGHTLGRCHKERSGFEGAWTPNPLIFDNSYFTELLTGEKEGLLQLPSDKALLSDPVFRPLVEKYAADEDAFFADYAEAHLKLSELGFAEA

APX activity assay, in-gel and in solution [1]: AtCytAPX1 displayed only APX activity | Km [4]: 616 µM
Structure (SMILES): O=C1O[C@H]([C@@H](O)CO)C(O)=C1O [AsA]
APX activity assay, in-gel and in solution [2]: Recombinant proteins from G. max, O. sativa, and Z. mays displayed both AsA and GSH | APX activity assay, in-gel and in solution [3]: Recombinant proteins from G. max, O. sativa, and Z. mays displayed both AsA and GSH
